Test results taken from US20250230165A1, “HETEROCYCLIC COMPOUNDS FOR USE IN THE TREATMENT OF CANCER” (ARTIOS PHARMA LIMITED, priority 2021, published 2025).

These molecules were tested against T1, Human Polθ polymerase domain (aa1820-2590) (Homo sapiens, UniProt O75417) (assay: Polθ Polymerase Domain Kinact/KI Assay (PicoGreen)). Settings: 0.8 nM Polθ, 100 nM DNA substrate, kobs vs [I] fit for 2-step covalent inhibitor.
T1 construct: Human Polθ polymerase domain (aa1820-2590) was expressed in E. coli; made in house; host or cells: E. coli
T1 sequence (O75417 1820-2590): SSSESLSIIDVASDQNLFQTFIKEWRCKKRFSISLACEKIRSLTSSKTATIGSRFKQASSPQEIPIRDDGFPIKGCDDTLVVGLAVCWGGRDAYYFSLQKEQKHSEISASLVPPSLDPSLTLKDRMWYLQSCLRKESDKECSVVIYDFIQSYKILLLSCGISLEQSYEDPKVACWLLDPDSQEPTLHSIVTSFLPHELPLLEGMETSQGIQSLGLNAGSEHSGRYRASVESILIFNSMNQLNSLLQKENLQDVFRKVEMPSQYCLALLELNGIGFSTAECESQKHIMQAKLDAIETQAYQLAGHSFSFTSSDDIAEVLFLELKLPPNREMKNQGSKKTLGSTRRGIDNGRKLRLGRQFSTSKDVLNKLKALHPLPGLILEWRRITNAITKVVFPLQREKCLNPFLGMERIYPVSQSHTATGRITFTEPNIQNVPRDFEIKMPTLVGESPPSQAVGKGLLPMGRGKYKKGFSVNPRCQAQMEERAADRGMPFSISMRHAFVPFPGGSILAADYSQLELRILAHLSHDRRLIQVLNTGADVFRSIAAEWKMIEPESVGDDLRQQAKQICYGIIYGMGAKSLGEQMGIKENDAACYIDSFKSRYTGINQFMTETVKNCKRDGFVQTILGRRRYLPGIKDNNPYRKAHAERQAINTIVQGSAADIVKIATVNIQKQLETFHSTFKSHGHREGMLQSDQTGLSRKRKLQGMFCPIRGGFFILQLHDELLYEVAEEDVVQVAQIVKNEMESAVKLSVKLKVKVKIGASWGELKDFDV
Assay type: biochemical
How it was run: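 PicoGreen fluorescence read-out of primer extension; progress curves per inhibitor concentration fitted for kobs, then kobs vs [I] fitted to a two-step covalent model to give Kinact and KI. Conditions: 0.8 nM enzyme, 100 nM DNA substrate, […].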

SMILES | Kinact/Kl
C=CC(=O)N1Cc2cc(CN3C[C@H]4CC(=O)N(c5cc(C(F)(F)F)cc(C)n5)[C@@H]4C(=O)N(C)c4cccc(Cl)c43)cnc2C1COC (mixture of isomers) [Example 236, (3aR,11aS)-5-(((S/R)-6-acryloyl-7-(methoxymethyl)-6,7-dihydro-5H-pyrrolo[3,4-b]pyridin-3-yl)methyl)-6-chloro-10-methyl-1-(6-methyl-4-(trifluoromethyl)pyridin-2-yl)-1,3a,4,5,10,11a-hexahydro-2H-benzo[b]pyrrolo[2,3-f][1,4]diazocine-2,11(3H)-dione] | 1.24e+06 M⁻¹ s⁻¹
C=C(CN(C)C)C(=O)N1CC(OCCCN2C[C@H]3CC(=O)N(c4cc(C(F)(F)F)cc(C)n4)[C@@H]3C(=O)N(C)c3ccccc32)C1 [Example 81, (3aR,11aS)-5-(3-((1-(2-((dimethylamino)methyl)acryloyl)azetidin-3-yl)oxy)propyl)-10-methyl-1-(6-methyl-4-(trifluoromethyl)pyridin-2-yl)-1,3a,4,5,10,11a-hexahydro-2H-benzo[b]pyrrolo[2,3-f][1,4]diazocine-2,11(3H)-dione] | 2.03e+06 M⁻¹ s⁻¹
C=C(CN(C)C)C(=O)Nc1ccc(CN2C[C@H]3CC(=O)N(c4cc(C(F)(F)F)cc(C)n4)[C@@H]3C(=O)N(C)c3cccc(C)c32)cc1 [Example 209, N-(4-(((3aR,11aS)-6,10-dimethyl-1-(6-methyl-4-(trifluoromethyl)pyridin-2-yl)-2,11-dioxo-1,2,3,3a,4,10,11,11a-octahydro-5H-benzo[b]pyrrolo[2,3-f][1,4]diazocin-5-yl)methyl)phenyl)-2-((dimethylamino)methyl)acrylamide] | 530000 M⁻¹ s⁻¹
C=C(CN(C)C)C(=O)N1CCC[C@@H]1c1ccc(CN2C[C@H]3CC(=O)N(c4cc(C(F)(F)F)cc(C)n4)[C@@H]3C(=O)N(C)c3cccc(F)c32)cc1 (racemic) [Example 171a, (3aR,11aS)-5-(4-((R/S)-1-(2-((di-methylamino)-methyl)acryloyl)-pyrrolidin-2-yl)-benzyl)-6-fluoro-10-methyl-1-(6-methyl-4-(tri-fluoromethyl)-pyridin-2-yl)-1,3a,4,5,10,11a-hexahydro-2H-benzo[b]pyrrolo [2,3-f][1,4]diazo-cine-2,11(3H)-dione] | 2.29e+06 M⁻¹ s⁻¹
C=C(CN(C)C)C(=O)N1Cc2ccc(CN3C[C@H]4CC(=O)N(c5cc(C(F)(F)F)cc(C)n5)[C@@H]4C(=O)N(C)c4cccc(Cl)c43)cc2C1 [Example 163, (3aR,11aS)-6-chloro-5-((2-(2-((dimethylamino)methyl)acryloyl)isoindolin-5-yl)methyl)-10-methyl-1-(6-methyl-4-(trifluoromethyl)pyridin-2-yl)-1,3a,4,5,10,11a-hexahydro-2H-benzo[b]pyrrolo[2,3-f][1,4]diazocine-2,11(3H)-dione] | 1.82e+06 M⁻¹ s⁻¹
C=CC(=O)N1CCN(CCCN2C[C@H]3CC(=O)N(c4cc(C(F)(F)F)cc(C)n4)[C@@H]3C(=O)N(C)c3cccc(Cl)c32)CC1CC#N (mixture of isomers) [Example 267b, 2-((R/S)-1-acryloyl-4-(3-((3aR,11aS)-6-chloro-10-methyl-1-(6-methyl-4-(trifluoromethyl)pyridin-2-yl)-2,11-dioxo-1,2,3,3a,4,10,11,11a-octahydro-5H-benzo[b]pyrrolo[2,3-f][1,4]diazocin-5-yl)propyl)piperazin-2-yl)acetonitrile] | 3.03e+06 M⁻¹ s⁻¹
C=CC(=O)N1Cc2cc(CN3C[C@H]4CC(=O)N(c5cc(C(F)(F)F)cc(C)n5)[C@@H]4C(=O)N(C)c4cccc(Cl)c43)cnc2C1CO (single isomer, unassigned) [Example 230] | 1.01e+06 M⁻¹ s⁻¹
C=CC(=O)N1CC[C@H](N(C)CCN2C[C@H]3CC(=O)N(c4cc(C(F)(F)F)cc(C)n4)[C@@H]3C(=O)N(C)c3cccc(Cl)c32)[C@H](F)C1 [Example 67, (3aR,11aS)-5-(2-(((3R,4S)-1-acryloyl-3-fluoropiperidin-4-yl)(methyl)amino)ethyl)-6-chloro-10-methyl-1-(6-methyl-4-(trifluoromethyl)pyridin-2-yl)-1,3a,4,5,10,11a-hexahydro-2H-benzo[b]pyrrolo[2,3-f][1,4]diazocine-2,11(3H)-dione] | 2.32e+06 M⁻¹ s⁻¹
C=CC(=O)N1CC(N2CC[C@H](CN3C[C@H]4CC(=O)N(c5cc(C(F)(F)F)cc(C)n5)[C@@H]4C(=O)N(C)c4cccc(Cl)c43)C2)C1 [Example 218, (3aR,11aS)-5-(((S)-1-(1-acryloylazetidin-3-yl)pyrrolidin-3-yl)methyl)-6-chloro-10-methyl-1-(6-methyl-4-(trifluoromethyl)pyridin-2-yl)-1,3a,4,5,10,11a-hexahydro-2H-benzo[b]pyrrolo [2,3-f][1,4] diazocine-2,11 (3H)-dione] | 1.62e+06 M⁻¹ s⁻¹

Continued, values first:

Kinact/Kl | SMILES
1.47e+06 M⁻¹ s⁻¹ | C=CC(=O)N1CC2(CN(CCN3C[C@H]4CC(=O)N(c5cc(C(F)(F)F)cc(C)n5)[C@@H]4C(=O)N(C)c4cccc(F)c43)CCN2C(C)=O)C1 [Example 36, (3aR,11aS)-5-(2-(5-acetyl-2-acryloyl-2,5,8-triazaspiro[3.5]nonan-8-yl)ethyl)-6-fluoro-10-methyl-1-(6-methyl-4-(trifluoromethyl)pyridin-2-yl)-1,3a,4,5,10,11a-hexahydro-2H-benzo[b]pyrrolo[2,3-f][1,4]diazocine-2,11(3H)-dione]
2.36e+06 M⁻¹ s⁻¹ | C=CC(=O)N1CC(C)(N2CCN(CCN3C[C@H]4CC(=O)N(c5cc(C(F)(F)F)cc(C)n5)[C@@H]4C(=O)N(C)c4cccc(C)c43)CC2)C1 [Example 72, (3aR,11aS)-5-(2-(4-(1-acryloyl-3-methylazetidin-3-yl)piperazin-1-yl)ethyl)-6,10-dimethyl-1-(6-methyl-4-(trifluoromethyl)pyridin-2-yl)-1,3a,4,5,10,11a-hexahydro-2H-benzo[b]pyrrolo[2,3-f][1,4]diazocine-2,11(3H)-dione]
430000 M⁻¹ s⁻¹ | C=CC(=O)N1CC(N2CCC(N3C[C@H]4CC(=O)N(c5cc(C(F)(F)F)cc(C)n5)[C@@H]4C(=O)N(C)c4cccc(F)c43)CC2)C1 [Example 216, (3aR,11aS)-5-(1-(1-acryloylazetidin-3-yl)piperidin-4-yl)-6-fluoro-10-methyl-1-(6-methyl-4-(trifluoromethyl)pyridin-2-yl)-1,3a,4,5,10,11a-hexahydro-2H-benzo[b]pyrrolo [2,3-f][1,4] diazocine-2,11(3H)-dione]
130000 M⁻¹ s⁻¹ | C=CC(=O)N1CC(N2CCN(CCN3C[C@H]4CC(=O)N(c5cc(C(F)(F)F)cc(C)n5)[C@@H]4C(=O)N(C)c4cc(F)cc(F)c43)CC2)C1 [Example 16, (3aR,11aS)-5-(2-(4-(1-acryloylazetidin-3-yl)piperazin-1-yl)ethyl)-6,8-difluoro-10-methyl-1-(6-methyl-4-(trifluoromethyl)pyridin-2-yl)-1,3a,4,5,10,11a-hexahydro-2H-benzo[b]pyrrolo[2,3-f][1,4]diazocine-2,11(3H)-dione]
750000 M⁻¹ s⁻¹ | C=CC(=O)N1CC2(CN(CCN3C[C@H]4CC(=O)N(c5cc(C(F)(F)F)cc(C)n5)[C@@H]4C(=O)N(C)c4cccc(F)c43)CCO2)C1 [Example 4, (3aR,11aS)-5-(2-(2-acryloyl-5-oxa-2,8-diazaspiro[3.5]nonan-8-yl)ethyl)-6-fluoro-10-methyl-1-(6-methyl-4-(trifluoromethyl)pyridin-2-yl)-1,3a,4,5,10,11a-hexahydro-2H-benzo[b]pyrrolo[2,3-f][1,4]diazocine-2,11(3H)-dione]
150000 M⁻¹ s⁻¹ | C=CC(=O)N1Cc2ncn(CCN3C[C@H]4CC(=O)N(c5cc(C(F)(F)F)cc(C)n5)[C@@H]4C(=O)N(C)c4cccc(Cl)c43)c2C1 [Example 259, (3aR,11aS)-5-(2-(5-acryloyl-5,6-dihydropyrrolo[3,4-d]imidazol-1(4H)-yl)ethyl)-6-chloro-10-methyl-1-(6-methyl-4-(trifluoromethyl)pyridin-2-yl)-1,3a,4,5,10,11a-hexahydro-2H-benzo[b]pyrrolo[2,3-f][1,4]diazocine-2,11(3H)-dione]
62000 M⁻¹ s⁻¹ | C=CC(=O)N1CCn2c(nnc2CN2C[C@H]3CC(=O)N(c4cc(C(F)(F)F)cc(C)n4)[C@@H]3C(=O)N(C)c3cccc(F)c32)C1 [Example 134, (3aR,11aS)-5-((7-acryloyl-5,6,7,8-tetrahydro-[1,2,4]triazolo[4,3-a]pyrazin-3-yl)methyl)-6-fluoro-10-methyl-1-(6-methyl-4-(trifluoromethyl)pyridin-2-yl)-1,3a,4,5,10,11a-hexahydro-2H-benzo[b]pyrrolo[2,3-f][1,4]diazocine-2,11(3H)-dione]
